# Results as given in publication PMC6272127, “Synthesis, Antiproliferative Activity and Molecular Properties Predictions of Galloyl Derivatives” (Molecules, 2015).
# Like-named read-outs stand apart in the source and are kept apart here.
# Key:
# OVCAR-3 (ovarian) = test: Anticancer assay in vitro (sulforhodamine B), OVCAR-3; assay type: cell-based; settings: for TGI: OVCAR-3, total growth inhibition, 48 h; for GI50: SRB
# Method: (§1) The experiments were performed in triplicate.
# HT-29 (colon) = test: Anticancer assay in vitro (sulforhodamine B), HT-29; assay type: cell-based; settings: for TGI: HT-29, total growth inhibition, 48 h; for GI50: SRB
# Method: as §1
# HaCaT (keratinocytes) = test: Anticancer assay in vitro (sulforhodamine B), HaCaT; assay type: cell-based; settings: 48 h; for GI50: SRB; for TGI: total growth inhibition
# Method: as §1
# [1] = system: ten human tumor cell lines; test: Anticancer assay in vitro (sulforhodamine B), statements over the panel of cell lines; assay type: cell-based; settings: for cytotoxic efficacy: OVCAR-3 and K-562 cell lines
# Method: as §1
# MCF-7 (breast) = test: Anticancer assay in vitro (sulforhodamine B), MCF-7; assay type: cell-based; settings: for GI50: MCF-7, 48 h, SRB
# Method: as §1
# K-562 (leukemia) = test: cells; assay type: cell-based; settings: for GI50: K-562, 48 h, SRB
# Method: as §1
# [2] = system: NCI-ADR/RES (breast expressing the multiple drug resistance phenotype); test: cells; assay type: cell-based; settings: for GI50: SRB
# Method: as §1
# PC-3 (prostate) = test: cells; assay type: cell-based; settings: for GI50: PC-3, 48 h, SRB; for TGI: PC-3, total growth inhibition
# Method: as §1
# [3] = system: NCI-H460 (lung, non-small cells); test: cells; assay type: cell-based; settings: for GI50: SRB; for TGI: NCI-H460, total growth inhibition, 48 h
# Method: as §1
# 786-0 (renal) = test: cells; assay type: cell-based; settings: for TGI: 786-0, total growth inhibition, 48 h; for CC50 / GI50: 786-0, 48 h; for CC50: read-out: LC50; for GI50: SRB
# Method: as §1
# U251 (glioma, CNS) = test: cells; settings: for TGI: U251, total growth inhibition, 48 h
# Method: The GI50 values (growth inhibitory activity) (Table 1) refer to the drug concentration that produces a 50% reduction of cellular growth compared with the untreated control cells. The TGI (cytostatic activity) and LC50 (cytotoxic activity) values (Table 2) refer to the drug concentration required for total growth inhibition and killing 50% of the cells, respectively.
# The synthesized compounds were assessed in the following ten human tumor cell lines from various tissues kindly provide by the National Cancer Institute (Frederick, MD, USA): U251 (glioma, CNS), MCF-7 (breast), NCI-ADR/RES (breast expressing the multiple drug resistance phenotype), 786-0 (renal), NCI-H460 (lung, non-small cells), PC-3 (prostate), OVCAR-3 (ovarian), HT-29 (colon), K-562 (leukemia) and HaCaT (keratinocytes). Stock cultures were grown in media containing 5 mL of RPMI 1640 (Gibco BRL) supplemented with 5% fetal bovine serum. Gentamicin ([…]) was added to the experimental cultures. Cells in 96-well plates (100 µL cells/well) were exposed to sample concentrations in DMSO/RPMI (0.25, 2.5, 25, and 250 µg/mL) at 37 °C and 5% CO2 for 48 h. […] Next, cells were fixed with 50% trichloroacetic acid, and cell proliferation was determined by spectrophotometric quantification (540 nm) of cellular protein content employing the sulforhodamine B assay. Doxorubicin (0.025–25 µg/mL) was used as a positive control. Three measurements were obtained: first at time point zero (T0, at the beginning of incubation) and then 48 h post-incubation for both the compound-free (C) and tested (T) cells. Cell proliferation was determined using the equation 100 × [(T − T0)/C − T0]. A cytostatic effect was observed when T ≥ T0, while a cytocidal effect occurred when T < T0. The experiments were performed in triplicate.
# [4] = MCF-7, total growth inhibition, 48 h
# [5] = K-562, total growth inhibition, 48 h
# [6] = Homo sapiens, NCI/ADR-RES, 48 h
# [7] = NCI/ADR-RES, total growth inhibition, 48 h
molecule,measurement,setting,value
"COC(=O)c1cc(O)c(O)c(O)c1 [Compound 2, Methyl gallate]",CC50,"OVCAR-3 (ovarian); Homo sapiens, OVCAR-3, 48 h, read-out: LC50",33.7 µg/mL
same,TGI,OVCAR-3 (ovarian),1.59 µg/mL
same,TGI,HT-29 (colon),8.52 µg/mL
same,CC50,"HT-29 (colon); Homo sapiens, HT-29, 48 h, read-out: LC50",30.6 µg/mL
same,GI50,"HT-29 (colon); Homo sapiens, HT-29, 48 h",0.49 µM
same,GI50,HaCaT (keratinocytes); Homo sapiens,0.26 µM
same,TGI,HaCaT (keratinocytes),16.74 µg/mL
same,TGI values over the cell lines tested,[1]; range over all human tumor cell lines,1.59 to 16.74 µM
same,GI50,"MCF-7 (breast); Homo sapiens, MCF7",0.16 µM
same,TGI,MCF-7 (breast); [4],5.12 µg/mL
same,GI50,"K-562 (leukemia); Homo sapiens, K562",0.31 µM
same,TGI,K-562 (leukemia); [5],5.67 µg/mL
same,CC50,"[2]; Homo sapiens, NCI/ADR-RES, 48 h, read-out: LC50",30.3 µg/mL
same,GI50,[2]; [6],0.12 µM
same,TGI,[2]; [7],3.62 µg/mL
same,GI50,PC-3 (prostate); Homo sapiens,0.57 µM
same,TGI,PC-3 (prostate); 48 h,13.10 µg/mL
same,CC50,"[3]; Homo sapiens, NCI-H460, 48 h, read-out: LC50",34.9 µg/mL
same,GI50,"[3]; Homo sapiens, NCI-H460, 48 h",0.13 µM
same,TGI,[3],7.97 µg/mL
same,TGI,786-0 (renal),8.62 µg/mL
same,CC50,786-0 (renal); Homo sapiens,31.4 µg/mL
same,GI50,786-0 (renal); Homo sapiens,0.65 µM
same,GI50,"U251 (glioma, CNS); Homo sapiens, U-251, 48 h",0.16 µM
same,CC50,"U251 (glioma, CNS); Homo sapiens, U-251, 48 h, read-out: LC50",29.2 µg/mL
same,TGI,"U251 (glioma, CNS)",4.10 µg/mL
"O=C(N/N=C/c1ccccc1)c1cc(O)c(O)c(O)c1 [Compound 4, N'-(Benzylidene)galloyl hydrazide]",GI50,"OVCAR-3 (ovarian); Homo sapiens, OVCAR-3, 48 h",1.24 µM
same,TGI,OVCAR-3 (ovarian),29.61 µg/mL
same,GI50,"HT-29 (colon); Homo sapiens, HT-29, 48 h",7.53 µM
same,GI50,HaCaT (keratinocytes); Homo sapiens,8.29 µM
same,GI50,"[1]; Homo sapiens, bound or range over all (for 4: nine) human tumor cell lines, read-out: GI50 values over the cell lines tested",1.24 to 9.96 µM
same,GI50,"MCF-7 (breast); Homo sapiens, MCF7",5.55 µM
same,TGI,MCF-7 (breast); [4],23.54 µg/mL
same,GI50,"K-562 (leukemia); Homo sapiens, K562",9.96 µM
same,GI50,[2]; [6],7.16 µM
same,GI50,PC-3 (prostate); Homo sapiens,5.07 µM
same,GI50,"[3]; Homo sapiens, NCI-H460, 48 h",11.2 µM
same,GI50,786-0 (renal); Homo sapiens,9.06 µM
same,GI50,"U251 (glioma, CNS); Homo sapiens, U-251, 48 h",7.8 µM
"O=C(N/N=C/c1ccc([N+](=O)[O-])cc1)c1cc(O)c(O)c(O)c1 [Compound 6, N'-(4-Nitrobenzylidene)galloyl hydrazide]",GI50,"OVCAR-3 (ovarian); Homo sapiens, OVCAR-3, 48 h",5.91 µM
same,GI50,HaCaT (keratinocytes); Homo sapiens,31.6 µM
same,cytotoxic efficacy,[1],did not demonstrate cytotoxic efficacy
same,GI50,[2]; [6],8.46 µM
same,GI50,PC-3 (prostate); Homo sapiens,14 µM
same,TGI,PC-3 (prostate); 48 h,84.67 µg/mL
same,GI50,786-0 (renal); Homo sapiens,7.6 µM
same,GI50,"U251 (glioma, CNS); Homo sapiens, U-251, 48 h",5.12 µM
"COc1ccc(/C=N/NC(=O)c2cc(O)c(O)c(O)c2)cc1 [Compound 7, N'-(4-Methoxybenzylidene)galloyl hydrazide]",GI50,"OVCAR-3 (ovarian); Homo sapiens, OVCAR-3, 48 h",5.98 µM
same,GI50,"HT-29 (colon); Homo sapiens, HT-29, 48 h",25.1 µM
same,GI50,HaCaT (keratinocytes); Homo sapiens,18.1 µM
same,cytotoxic efficacy,[1],did not demonstrate cytotoxic efficacy
same,GI50,"MCF-7 (breast); Homo sapiens, MCF7",15.7 µM
same,GI50,"K-562 (leukemia); Homo sapiens, K562",8.93 µM
same,TGI,K-562 (leukemia); [5],41.76 µg/mL
same,GI50,[2]; [6],11.3 µM
same,TGI,[2]; [7],66.56 µg/mL
same,GI50,PC-3 (prostate); Homo sapiens,19.6 µM
same,GI50,"[3]; Homo sapiens, NCI-H460, 48 h",41.1 µM
same,GI50,786-0 (renal); Homo sapiens,18.9 µM
same,GI50,"U251 (glioma, CNS); Homo sapiens, U-251, 48 h",9.14 µM
same,TGI,"U251 (glioma, CNS)",64.22 µg/mL
"O=C(N/N=C/c1ccc(O)cc1)c1cc(O)c(O)c(O)c1 [Compound 8, N'-(4-Hydroxybenzylidene)galloyl hydrazide]",GI50,"OVCAR-3 (ovarian); Homo sapiens, OVCAR-3, 48 h",1.35 µM
same,GI50,HaCaT (keratinocytes); Homo sapiens,8.72 µM
same,GI50,"K-562 (leukemia); Homo sapiens, K562",9.17 µM
same,GI50,"[3]; Homo sapiens, NCI-H460, 48 h",9.38 µM
same,GI50,786-0 (renal); Homo sapiens,26.8 µM
same,GI50,"U251 (glioma, CNS); Homo sapiens, U-251, 48 h",6.6 µM
same,TGI,"U251 (glioma, CNS)",26.07 µg/mL
"COc1cccc2c1C(=O)c1c(O)c3c(c(O)c1C2=O)C[C@@](O)(C(=O)CO)C[C@@H]3O[C@H]1C[C@H](N)[C@H](O)[C@H](C)O1 [Dox, Doxorubicin, reference compound]",GI50,"OVCAR-3 (ovarian); Homo sapiens, OVCAR-3, 48 h",0.02 µM
same,TGI,OVCAR-3 (ovarian),1.47 µg/mL
same,TGI,HT-29 (colon),26.03 µg/mL
same,GI50,"HT-29 (colon); Homo sapiens, HT-29, 48 h",0.09 µM
same,GI50,HaCaT (keratinocytes); Homo sapiens,0.01 µM
same,TGI,HaCaT (keratinocytes),0.77 µg/mL
same,GI50,"MCF-7 (breast); Homo sapiens, MCF7",0.01 µM
same,TGI,MCF-7 (breast); [4],2.52 µg/mL
same,CC50,"K-562 (leukemia); Homo sapiens, K562, 48 h, read-out: LC50",20.1 µg/mL
same,GI50,"K-562 (leukemia); Homo sapiens, K562",0.03 µM
same,TGI,K-562 (leukemia); [5],2.60 µg/mL
same,GI50,[2]; [6],0.2 µM
same,TGI,[2]; [7],22.42 µg/mL
same,CC50,"PC-3 (prostate); Homo sapiens, 48 h, read-out: LC50",7.95 µg/mL
same,GI50,PC-3 (prostate); Homo sapiens,0.18 µM
same,TGI,PC-3 (prostate); 48 h,1.03 µg/mL
same,GI50,"[3]; Homo sapiens, NCI-H460, 48 h",0.01 µM
same,TGI,[3],3.73 µg/mL
same,TGI,786-0 (renal),0.51 µg/mL
same,CC50,786-0 (renal); Homo sapiens,17.8 µg/mL
same,GI50,786-0 (renal); Homo sapiens,0.04 µM
same,GI50,"U251 (glioma, CNS); Homo sapiens, U-251, 48 h",0.02 µM
same,TGI,"U251 (glioma, CNS)",2.68 µg/mL
"Galloyl-2-methylthio-1,3,4-oxadiazole [Compound 10]",CC50,OVCAR-3 (ovarian),17.3 µM
same,LC50,OVCAR-3 (ovarian),(17.34) µg/mL
same,TGI,OVCAR-3 (ovarian),2.38 µg/mL
same,LC50,HT-29 (colon),(60.32) µg/mL
same,GI50,"HT-29 (colon); HT-29, 48 h",2.77 µM
same,TGI,HT-29 (colon),17.66 µg/mL
same,GI50,HaCaT (keratinocytes),2.5 µM
same,TGI,HaCaT (keratinocytes),18.00 µg/mL
same,CC50,MCF-7 (breast),20.2 µM
same,LC50,MCF-7 (breast),(20.24) µg/mL
same,GI50,MCF-7 (breast),0.34 µM
same,TGI,"MCF-7 (breast); MCF-7, as printed in the text",3.20 µM
same,TGI,MCF-7 (breast); [4],3.20 µg/mL
same,CC50,K-562 (leukemia),20.2 µM
same,LC50,K-562 (leukemia),(20.20) µg/mL
same,GI50,K-562 (leukemia),0.6 µM
same,TGI,"K-562 (leukemia); K-562, as printed in the text",3.70 µM
same,TGI,K-562 (leukemia); [5],3.70 µg/mL
same,CC50,[2],19.7 µM
same,LC50,[2],(19.65) µg/mL
same,TGI,[2]; NCI/ADR-RES,2.33 µM
same,GI50,"[2]; NCI/ADR-RES, 48 h",0.17 µM
same,TGI,[2]; [7],2.33 µg/mL
same,LC50,PC-3 (prostate),(69.30) µg/mL
same,GI50,PC-3 (prostate),7.43 µM
same,TGI,PC-3 (prostate); 48 h,28.45 µg/mL
same,LC50,[3],(65.78) µg/mL
same,GI50,"[3]; NCI-H460, 48 h",9.44 µM
same,TGI,[3],29.52 µg/mL
same,GI50,786-0 (renal),9.2 µM
same,TGI,786-0 (renal),29.40 µg/mL
same,LC50,"U251 (glioma, CNS)",(30.43) µg/mL
same,GI50,"U251 (glioma, CNS); U251, 48 h, SRB",5.2 µM
same,TGI,"U251 (glioma, CNS)",16.40 µg/mL
